Like-named read-outs stand apart in the source and are kept apart here. Marks after values point to notes of the source that are not given here. Where no end group is shown, it is not given here.
Key:
Assay type in all cases: cell-based
[1] = test system: human tongue squamous cell carcinoma CAL27 cells; conditions: CAL27, 80 μM, 48 h
Description: After incubation was continued for 48 h, add 100 μL of CCK8 solution to each well of the 96-well plate.

[2] = test system: human tongue squamous cell carcinoma cells CAL27; assay: CCK8 proliferation inhibition, CAL27 (Example 5); conditions: CAL27, 50 μM, 48 h
Description: (§1) Incubation was continued for 4 h in a cell incubator, an absorbance was measured at 450 nm, and a proliferation inhibition was calculated. Data was presented as mean±SD, and GraphPad Prism 5.0 statistical software was used. A t-test was used for comparison between two groups, while One-way Anova (Dunnett) was used for comparison among a plurality of groups.

[3] = test system: human lung squamous cell carcinoma cells SK-MES-1; assay: CCK8 proliferation inhibition, SK-MES-1; conditions: SK-MES-1, 50 μM, 48 h
Description: as §1

[4] = test system: human non-small cell lung cancer cells A549; assay: CCK8 proliferation inhibition, A549; conditions: A549, 50 μM, 48 h
Description: as §1

[5] = test system: human liver cancer cells HepG2; assay: CCK8 proliferation inhibition, HepG2; conditions: HepG2, 50 μM, 48 h
Description: as §1

[6] = test system: human kidney cancer cells Ketr-3; assay: CCK8 proliferation inhibition, Ketr-3; conditions: Ketr-3, 50 μM, 48 h
Description: as §1

[7] = test system: human breast cancer cells MDA-MB-231; assay: CCK8 proliferation inhibition, MDA-MB-231; conditions: MDA-MB-231, 50 μM, 48 h
Description: as §1

[8] = test system: human cervical cancer epithelial cells CaSki; assay: CCK8 proliferation inhibition, CaSki; conditions: 50 μM, 48 h
Description: as §1

[9] = test system: human colon cancer cells HT29; assay: CCK8 proliferation inhibition, HT29; conditions: HT29, 50 μM, 48 h
Description: as §1

[10] = test system: human ileocecal cancer cells HCT-8; assay: CCK8 proliferation inhibition, HCT-8; conditions: HCT-8, 50 μM, 48 h
Description: as §1

[11] = test system: human gastric cancer cells MGC-803; assay: CCK8 proliferation inhibition, MGC-803; conditions: MGC-803, 50 μM, 48 h
Description: as §1

[12] = test system: human gastric cancer cells BGC-823; assay: CCK8 proliferation inhibition, BGC-823; conditions: BGC-823, 50 μM, 48 h
Description: as §1

[13] = test system: human bladder transitional cell carcinoma cells T24; assay: CCK8 proliferation inhibition, T24; conditions: T24, 50 μM, 48 h
Description: as §1

[14] = test system: human pancreatic cancer cells PANC-1; assay: CCK8 proliferation inhibition, PANC-1; conditions: PANC-1, 50 μM, 48 h
Description: as §1

[15] = test system: human prostate cancer cells 22RV1; assay: CCK8 proliferation inhibition, 22RV1; conditions: 22RV1, 50 μM, 48 h
Description: as §1

[16] = test system: human cholangiocarcinoma cells QBC939; assay: CCK8 proliferation inhibition, QBC939; conditions: QBC939, 50 μM, 48 h
Description: as §1

[17] = test system: human malignant melanoma cells A375; assay: CCK8 proliferation inhibition, A375; conditions: A375, 50 μM, 48 h
Description: as §1

[18] = test system: human fibrosarcoma cells HT-1080; assay: CCK8 proliferation inhibition, HT-1080; conditions: HT-1080, 50 μM, 48 h
Description: as §1

[19] = test system: human diffuse large B-cell lymphoma (DLBCL) cells WSU-DLCL2; assay: CCK8 proliferation inhibition, WSU-DLCL2; conditions: WSU-DLCL2, 50 μM, 48 h
Description: as §1

[20] = test system: human acute lymphoblastic leukemia cells CEM/C1; assay: CCK8 proliferation inhibition, CEM/C1; conditions: CEM/C1, 50 μM, 48 h
Description: as §1

[21] = test system: human acute myeloid leukemia cells KG-1; assay: CCK8 proliferation inhibition, KG-1; conditions: KG-1, 50 μM, 48 h
Description: as §1

[22] = test system: human promyelocytic leukemia cells HL60; assay: CCK8 proliferation inhibition, HL60; conditions: HL60, 50 μM, 48 h
Description: as §1

[23] = test system: human cervical cancer Hela cells; assay: Transwell metastasis inhibition, Hela; conditions: 50 μmol/L, 48 h
Description: (§2) Melanoma, cervical cancer, ovarian cancer, liver cancer, and lung cancer cells were seeded into transwell chambers, with 100 μL per well. Different doses of the HMMW micropeptide and the novel polypeptide HMMW15-51 were added to each chamber as a treatment group, while no drug was added to a blank group. Then, 0.6 mL of a complete culture medium containing 10% FBS was added to the lower chambers of the transwell to stimulate cell metastasis, and the cells were cultured at 5% CO2 and 37° C. for 48 h. The culture solution was discarded from the wells. The cells were fixed with methanol at room temperature for 30 min, stained with 0.1% crystal violet at room temperature for 10 min, and rinsed with clean water. The upper layer nonmetastatic cells were wiped off with a cotton swab. The cells were observed under a microscope, and four fields of view were selected to take photos and count the cells. A metastasis inhibition (MI) was calculated according to a formula: […]
(§3) where Ntest represents the number of cell metastases in the treatment group, and Ncontrol represents the number of cell metastases in the blank control group.
(§4) Data was presented as mean±SD, and GraphPad Prism 5.0 statistical software was used.

[24] = test system: human ovarian cancer Skvo3 cells; assay: Transwell metastasis inhibition, Skvo3; conditions: 48 h
Description: as §2, §3, §4

[25] = test system: human lung cancer A549 cells; assay: Transwell metastasis inhibition, A549; conditions: 48 h
Description: as §2, §3, §4

For “MERAGVPGFSPRRSSVEAKMQSTSCSVRKSSTVTAWPAVVLLLSWGQRRGG [HMMW]”, the OD ([1]; Table 1, deletion mutants) was 0.260 ± 0.098, the OD ([1]; Table 2, truncated fragments) was 0.351 ± 0.078 and the “Inhibition (%)” value [2] was 67.115 ± 5.457 %. For the same sequence, the OD [2] was 0.383 ± 0.064, the “Inhibition (%)” value [3] was 54.910 ± 4.426 % and the OD [3] was 0.435 ± 0.043. The “Inhibition (%)” value [4] was 52.950 ± 2.023 %, the OD [4] was 0.508 ± 0.022 and the “Inhibition (%)” value [5] was 52.579 ± 2.504 %. For the same sequence, the OD [5] was 0.509 ± 0.027, the “Inhibition (%)” value [6] was 48.708 ± 4.852 % and the OD [6] was 0.476 ± 0.045. For the same sequence, the “Inhibition (%)” value [7] was 65.216 ± 4.512 %, the OD [7] was 0.429 ± 0.056 and the “Inhibition (%)” value [8] was 53.329 ± 3.884 %. For the same sequence, the OD [8] was 0.458 ± 0.038, the “Inhibition (%)” value [9] was 50.805 ± 2.422 % and the OD [9] was 0.479 ± 0.024. The “Inhibition (%)” value [10] was 48.687 ± 3.785 %, the OD [10] was 0.482 ± 0.036 and the “Inhibition (%)” value [11] was 41.094 ± 3.077 %. The OD [11] was 0.675 ± 0.035, the “Inhibition (%)” value [12] was 47.730 ± 4.739 % and the OD [12] was 0.510 ± 0.046. For the same sequence, the “Inhibition (%)” value [13] was 51.562 ± 4.780 %, the OD [13] was 0.460 ± 0.045 and the “Inhibition (%)” value [14] was 50.273 ± 6.135 %. The OD [14] was 0.424 ± 0.052, the “Inhibition (%)” value [15] was 50.463 ± 1.693 % and the OD [15] was 0.552 ± 0.019. The “Inhibition (%)” value [16] was 49.490 ± 2.138 %, the OD [16] was 0.429 ± 0.018 and the “Inhibition (%)” value [17] was 49.572 ± 4.128 %. For the same sequence, the OD [17] was 0.491 ± 0.040, the “Inhibition (%)” value [18] was 53.092 ± 4.138 % and the OD [18] was 0.432 ± 0.038. For the same sequence, the “Inhibition (%)” value [19] was 44.365 ± 2.462 %, the OD [19] was 0.731 ± 0.032 and the “Inhibition (%)” value [20] was 46.518 ± 1.484 %. The OD [20] was 0.630 ± 0.017, the “Inhibition (%)” value [21] was 37.600 ± 5.989 % and the OD [21] was 0.725 ± 0.070. The “Inhibition (%)” value [22] was 47.264 ± 5.692 %, the OD [22] was 0.578 ± 0.062 and the “Inhibition (%)” value ([23]; Hela metastasis) was 88.80*** %. The “Number of cell metastases” value ([23]; Hela) was 115 ± 20.32, the “Number of cell metastases” value ([24]; Skvo3, 50 μmol/L) was 118 ± 26.16 and the “Inhibition (%)” value ([24]; Skvo3 metastasis, 50 μmol/L) was 89.60*** %. The “Number of cell metastases” value ([25]; A549, 50 μmol/L) was 33 ± 20.50 and the “Inhibition (%)” value ([25]; A549 metastasis, 50 μmol/L) was 94.57*** %.

— US20260167673A1, “NOVEL POLYPEPTIDE, POLYPEPTIDE DERIVATIVE AND USE THEREOF” (NANJING ANJI BIOTECHNOLOGY CO., LTD., priority 2023, published 2026)
